Experimental data from US6589762B1, “Calcafluor screen for chitin biosynthesis inhibitors” (priority 1993, dated 2003).

What was measured:
Aspergillus nidulans = assay: Calcofluor rescue with filamentous fungus instead of S. cerevisiae; format: cell-based; settings: very high calcofluor concentrations
Text: (§1) Attempts are made to replace S. cerevisiae with several species of filamentous fungi, including Neurospora crassa, Aspergillus nidulans, Botrytis cinerea, Pseudocercosporella herpotrichoides, but all the species respond differently from S. cerevisiae. N. crassa and A. nidulans require very high concentrations of calcofluor to inhibit growth.

Neurospora crassa = assay: as above; format: cell-based; settings: very high calcofluor concentrations
Text: as §1

[1] = tested on: strain ECY36-3C (relies on chitin synthase isozyme 3); assay: In vivo secondary screen, growth of chitin synthase mutant yeast; format: cell-based, Saccharomyces cerevisiae; settings: for growth of strain ECY36-3C (in words): strain producing only Chs3
Text: (§2) One type of calcofluor rescue secondary screen is an in vivo test that assays the effect of compounds on the growth of chitin synthase mutant yeast strains that rely on a single chitin synthase isozyme for survival. A number of these strains have been described, such as the strains that rely on chitin synthase isozymes 2 or 3 described by Shaw, J. A., et al. (J. Cell Biol. 114: 111-123 (1991)) and similar strains described in the Examples section below. In this type of secondary screening test, the test sample added to and incubated in a culture of a mutant yeast strain producing only chitin synthase 2 or 3 (denoted, respectively, Chs2 and Chs3) for such time under such conditions sufficient to observe growth in a corresponding culture containing no test sample. A comparison of the extent of growth in the culture containing test sample with growth in its absence is then made. Inhibition of growth in the presence of test sample indicates inhibition of synthase isozyme produced by the strain. Any type of growth assessment may be employed but, as in the primary calcofluor rescue screen, preferred cultures in the secondary screen are solid, with test samples applied to a disk or well, so that cell growth can be easily determined by visual inspection.
(§3) Especially preferred in vivo secondary screens employ a pair of genetically related strains, one producing one isozyme, e.g., Chs2, and the other producing a different isozyme, e.g., Chs3. Using pairs allows for the simultaneous determination that culture conditions are appropriate for growth in the absence of inhibition and the identification of which isozyme may be affected by inhibition. The pairs, for example, include the ECY36-3C and ECY36-3D strains described by Shaw, cited above, that produce only Chs3 and Chs 2, respectively, and similar pairs such as SSY640-10A (containing only Chs3) and SSY-638-3B (containing only Chs 2) described in the Examples below. […] In a similar manner, a comparison of differential effects observed in the growth of strain pairs in the presence of a test sample allows for the putative identification of which isozyme is affected by the sample.
(§4) In Vivo Secondary Screens. The in vivo calcofluor rescue secondary screens assay the differential effect of compounds on the growth of two pairs of yeast strains. Each strain in the pairs, denoted ECY36-3C and ECY36-3D and SSY640-10A and SSY638-3B, is a chitin synthase mutant that relies on the expression of a single chitin synthase isozyme for its survival.
(§5) Strains ECY36-3C and ECY36-3D are described by Shaw, J. A., et al., cited above. ECY36-3C has the genotype MATa, chs1-23, chs2::LEU2, ura3-52, leu2-3,112, trp1-1 and ECY36-3D has the genotype MATa, chs1-23, ca1^R1 (chs3^−), ura3-52, leu2-3,112, trp1-1. Both strains are segregants from crossing strain ECY33-18A (Mata, chs1-23, ca1^R1, ura3-52, leu2-3,112, trp1-1) and ECY19 Δ22 2-5B (MATα, chs1-23, chs2::LEU2, ura3-52, leu2-3,112, trp1-1) using standard methodology. ECY36-3C relies on the expression of chitin synthase isozyme 3 for survival, and ECY36-3D relies on chitin synthase isozyme 2 (Chs2).
(§6) Strains ECY36-3C and ECY36-3D are inoculated in SD medium containing nutritional supplements appropriate to strain growth, e.g., containing about 0.01% (w/v) each of uracil, adenine sulfate, leucine, tryptophan, histidine, and lysine. When the cultures reach stationary phase (typically after 24 hours), they are used immediately or stored at 4° C. for up to a week before use. The cultures are diluted 1/100 into YEPD medium containing 2% agar which has been maintained at ˜50° C., immediately poured into petri dishes, and allowed to cool. Test compounds are applied to cellulose filter disks as described in Example 1 above (e.g., nikkomycin Z, 4 μl of a 5 mg/ml solution), and the disks are applied to the agar. Plates are incubated at 30° C. overnight and growth inhibitory zones are measured around the disks after 24 hours. […]

[2] = tested on: strain ECY36-3D (relies on chitin synthase isozyme 2); assay: as above; format: cell-based, Saccharomyces cerevisiae; settings: for growth of strain ECY36-3D (in words): strain producing only Chs2
Text: as §2, §3, §4, §5, §6

Chs3 = target: T1, Chs3 (Saccharomyces cerevisiae, UniProt P29465); assay: In vitro chitin synthase enzyme assay (incorporation of UDP-14C-N-acetylglucosamine); format: biochemical
T1 construct: To assay Chs3 activity, membranes from cells lacking Chs1 and, preferably, Chs2 are prepared; endogenous in cells; host or cells: S. cerevisiae strains ECY36-3C, JW17-11/1A/FOA or SSY640-10A (crude membrane fraction)
T1 sequence (P34226 1-693): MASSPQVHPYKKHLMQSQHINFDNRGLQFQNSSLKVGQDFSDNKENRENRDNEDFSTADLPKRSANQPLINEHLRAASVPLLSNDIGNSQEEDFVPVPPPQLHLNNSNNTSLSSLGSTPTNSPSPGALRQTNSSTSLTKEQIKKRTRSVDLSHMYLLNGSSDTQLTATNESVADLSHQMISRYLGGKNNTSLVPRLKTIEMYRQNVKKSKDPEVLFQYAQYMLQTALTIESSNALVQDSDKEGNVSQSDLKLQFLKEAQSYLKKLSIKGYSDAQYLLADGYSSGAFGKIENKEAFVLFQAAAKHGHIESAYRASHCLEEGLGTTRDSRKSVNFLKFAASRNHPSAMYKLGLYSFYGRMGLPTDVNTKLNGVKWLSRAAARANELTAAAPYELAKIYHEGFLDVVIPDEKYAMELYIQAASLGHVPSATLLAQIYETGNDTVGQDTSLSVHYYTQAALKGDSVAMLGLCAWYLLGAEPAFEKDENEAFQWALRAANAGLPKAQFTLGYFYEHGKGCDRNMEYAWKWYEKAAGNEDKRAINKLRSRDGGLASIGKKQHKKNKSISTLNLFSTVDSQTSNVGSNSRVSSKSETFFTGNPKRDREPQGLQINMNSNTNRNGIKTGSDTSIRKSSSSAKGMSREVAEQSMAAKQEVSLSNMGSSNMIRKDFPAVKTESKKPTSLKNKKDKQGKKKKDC
T1 sequence (P29465 whole entry): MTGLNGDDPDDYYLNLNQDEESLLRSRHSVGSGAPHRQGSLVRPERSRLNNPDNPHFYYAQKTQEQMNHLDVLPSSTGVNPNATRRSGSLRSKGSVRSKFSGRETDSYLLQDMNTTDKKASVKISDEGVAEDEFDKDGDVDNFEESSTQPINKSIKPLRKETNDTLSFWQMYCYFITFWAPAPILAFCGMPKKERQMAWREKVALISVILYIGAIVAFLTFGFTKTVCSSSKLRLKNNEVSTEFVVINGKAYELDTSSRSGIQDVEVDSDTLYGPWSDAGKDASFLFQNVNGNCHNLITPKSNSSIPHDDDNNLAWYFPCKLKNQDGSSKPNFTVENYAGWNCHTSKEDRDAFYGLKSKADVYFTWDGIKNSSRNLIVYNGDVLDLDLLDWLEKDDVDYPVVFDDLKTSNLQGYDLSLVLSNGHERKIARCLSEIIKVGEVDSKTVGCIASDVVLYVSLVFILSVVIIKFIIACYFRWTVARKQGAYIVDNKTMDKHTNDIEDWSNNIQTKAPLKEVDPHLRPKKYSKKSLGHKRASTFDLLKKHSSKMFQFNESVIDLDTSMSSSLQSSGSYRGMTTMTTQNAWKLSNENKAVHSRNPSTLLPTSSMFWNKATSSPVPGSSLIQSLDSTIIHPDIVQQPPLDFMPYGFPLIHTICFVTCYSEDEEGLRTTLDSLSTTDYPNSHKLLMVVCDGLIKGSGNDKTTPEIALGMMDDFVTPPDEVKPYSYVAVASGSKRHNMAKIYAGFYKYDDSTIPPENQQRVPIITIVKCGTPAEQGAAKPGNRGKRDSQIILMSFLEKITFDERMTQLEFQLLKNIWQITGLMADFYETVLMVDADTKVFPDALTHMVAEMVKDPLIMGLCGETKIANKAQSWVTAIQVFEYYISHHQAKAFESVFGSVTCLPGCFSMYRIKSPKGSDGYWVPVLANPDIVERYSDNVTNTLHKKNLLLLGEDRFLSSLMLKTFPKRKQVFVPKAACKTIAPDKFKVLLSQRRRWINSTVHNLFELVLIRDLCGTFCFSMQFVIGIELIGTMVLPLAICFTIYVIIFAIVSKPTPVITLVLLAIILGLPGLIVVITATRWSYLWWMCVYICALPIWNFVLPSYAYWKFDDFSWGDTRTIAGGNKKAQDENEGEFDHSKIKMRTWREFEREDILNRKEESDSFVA
Experimental: In Vitro Secondary Screens. These enzyme assays detect inhibition of individual chitin synthase isozymes Chs1, Chs2, and Chs3 by monitoring the incorporation of radioactive chitin precursor uridine diphospho-N-acetyl glucosamine into acid precipitable counts (i.e., chitin).
To assay Chs3 activity, membranes from cells lacking Chs1 and, preferably, Chs2 are prepared by a modification of the method of Orlean, P. cited above. Strain ECY36-3C, JW17-11/1A/FOA or SSY640-10A are inoculated into YEPD, and the culture is shaken at 30° C. Cells are harvested while still growing exponentially, e.g., at O.D.600 of ˜0.4 as measured in a Guilford Response™ spectrophotometer, washed once in 50 mM Tris-HCl, pH 7.5, containing 0.01 mM EDTA and 1 mM DTT (1,4-dithiothreitol), and resuspended in about 3 volumes of this buffer. Glass beads of about 200 to 300 micron diameter are added to just below the meniscus of the suspension, and cells are shaken by vortexing or in a Bead-Beater™ until lysis occurs, which is monitored microscopically. During this procedure, the cell suspension is kept below 10° C. by cooling in ice. The extract is collected, the glass beads are washed with the same buffer, and the wash is added to the extract. The volume is adjusted to about 20 original volumes with the same buffer.
The cell walls and debris are removed by a 10 minute centrifugation at about 3000×g. The samples are centriuged at 100,000×g for 40 minutes at 4° C. The membrane pellets are resuspended in about one original volume 50 mM Tris-HCl, pH 7.5 containing 0.01 mM EDTA which may contain 33% glycerol, and subjected to Dounce homogenization.
Ten μl of membranes are incubated with shaking in the presence of putative inhibitors in a standard 50 μl assay mixture containing 1 mM uridine diphospho-(^14C)-N-acetyl-glucosamine (400,000 cpm/μmole), 40 mM N-acetylglucosamine, 50 mM Tris-HCl, pH 7.5, and 5 mM MgCl2 at 25° C. The reaction is stopped after 90 minutes by addition of 10% trichloroacetic acid, and the amount of product quantified by filtration and scintillation counting.

[3] = tested on: Saccharomyces cerevisiae strain Y294; assay: Calcofluor rescue screen (disk or well diffusion); format: cell-based; settings: for activity in the calcofluor rescue screen (turbid zone of growth): disk diffusion assay, 20 μg/disk, 30° C., two days
Experimental: A preferred method comprises adding a test sample to a Saccharomyces cerevisiae culture containing calcofluor white or a calcofluor white derivative. The test sample is introduced to a disk or a well on a culture plate in a standard diffusion assay using solidified media, or introduced into one of a series of equivalent tissue culture tubes or bottles in a standard turbidity assay using liquid media. The culture is incubated for such time under such conditions sufficient to observe yeast cell growth inhibition in a corresponding culture or culture plate area containing calcofluor white but no test sample. The extent of growth of the culture containing or surrounding the test sample is compared with the extent of growth in the culture or culture area containing no test sample. The presence of chitin synthesis inhibition is determined by observing whether growth in the presence of test sample exceeds growth in its absence. In a culture plate, this is a turbid zone of growth surrounding the test sample. In a culture tube series, this is enhanced turbidity.
autoclaving at 20 lbs for 15 min. Strain Y294 having genotype MATα leu2-3,112 ura3-52 his3Δ trp1 GAL+[CIR+] inoculated into this liquid media and grown overnight, an OD600 of ˜5 or greater, while being shaken at 30° C.
The plates are poured and test samples are placed on the plates. A ¼″ disk containing […] of nikkomycin Z is used as a positive control. The plates are incubated at 30° C. for two days and then examined for activity. Actives produce a turbid zone surrounding the test sample.
All compounds are tested by disk diffusion assay using the method of this invention at a rate of 20 μg/disk.

Chs1 = Chs1 (Saccharomyces cerevisiae, UniProt P08004); settings: Cabib, Antimicrob. Agents Chemother. 35: 170-173 (1991); cited from earlier work
Chain of Chs1 (P08004 whole entry): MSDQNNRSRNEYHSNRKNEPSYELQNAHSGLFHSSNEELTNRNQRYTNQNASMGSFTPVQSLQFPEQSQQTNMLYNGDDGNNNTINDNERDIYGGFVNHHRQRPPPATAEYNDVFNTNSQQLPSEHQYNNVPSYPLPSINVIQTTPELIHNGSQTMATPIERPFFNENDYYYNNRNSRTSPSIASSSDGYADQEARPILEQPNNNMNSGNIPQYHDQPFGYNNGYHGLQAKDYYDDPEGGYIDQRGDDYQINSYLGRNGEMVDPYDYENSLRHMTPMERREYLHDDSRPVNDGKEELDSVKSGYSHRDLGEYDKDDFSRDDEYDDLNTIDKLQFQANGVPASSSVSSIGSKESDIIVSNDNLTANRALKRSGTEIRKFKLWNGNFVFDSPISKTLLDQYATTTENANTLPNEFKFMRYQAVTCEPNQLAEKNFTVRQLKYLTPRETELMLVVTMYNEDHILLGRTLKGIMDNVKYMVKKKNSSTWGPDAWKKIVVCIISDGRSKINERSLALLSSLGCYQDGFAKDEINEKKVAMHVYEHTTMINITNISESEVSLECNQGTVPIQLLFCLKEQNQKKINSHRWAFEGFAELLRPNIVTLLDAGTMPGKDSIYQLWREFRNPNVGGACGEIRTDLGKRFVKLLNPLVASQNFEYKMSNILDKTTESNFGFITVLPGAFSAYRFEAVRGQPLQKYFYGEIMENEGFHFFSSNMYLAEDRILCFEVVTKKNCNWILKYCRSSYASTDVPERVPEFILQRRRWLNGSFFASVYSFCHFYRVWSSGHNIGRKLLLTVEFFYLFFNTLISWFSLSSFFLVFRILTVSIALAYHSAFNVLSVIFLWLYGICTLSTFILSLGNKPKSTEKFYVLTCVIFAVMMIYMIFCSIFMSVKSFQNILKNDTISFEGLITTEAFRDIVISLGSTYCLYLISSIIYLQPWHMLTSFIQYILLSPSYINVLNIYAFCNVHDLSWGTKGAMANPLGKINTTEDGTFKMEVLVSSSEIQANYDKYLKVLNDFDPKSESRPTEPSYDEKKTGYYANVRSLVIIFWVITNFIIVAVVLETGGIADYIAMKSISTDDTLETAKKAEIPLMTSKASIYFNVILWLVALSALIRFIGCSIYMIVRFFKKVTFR

Botrytis cinerea = assay: Calcofluor rescue with filamentous fungus instead of S. cerevisiae; format: cell-based; settings: does not grow in the media
Text: as §1

[4] = tested on: Pseudocercosporella herpotrichoides; assay: as above; format: cell-based; settings: does not grow in the media
Text: as §1

[5] = tested on: strain SSY640-10A (containing only Chs3); assay: In vivo secondary screen, growth of chitin synthase mutant yeast; format: cell-based, Saccharomyces cerevisiae
Text: as §3, §4
(§7) Strain SSY640-10A has genotype chs1::HIS3, chs2::TRP1, his3, trp1, ade2, ade3, leu2, lys2, ura3 (possible cmk1Δ 1::HIS3). […]

[6] = tested on: strain SSY638-3B (containing only Chs2); assay: as above; format: cell-based, Saccharomyces cerevisiae
Text: as §3, §4, §7

A.T.C.C. strain S288c = assay: Comparison growth inhibition screen with strain S288c; format: cell-based, Saccharomyces cerevisiae; settings: same conditions at the same levels as Table III
[7] = tested on: selected phytopathogenic fungi (Pseudocercosporella herpotrichoides, Rhizoctonia solani, Fusarium oxysporum); assay: In vitro fungicide discovery screen (growth in nutrient agar); format: cell-based
Experimental: Standard in vitro and in vivo fungicide discovery screens are employed as tertiary tests to prioritize actives from the calcofluor rescue screen and the secondary screens. […] These include fungi causing wheat eyespot (Pseudocercosporella herpotrichoides), rice sheath blight (Rhizoctonia solani) and damping off (Fusarium oxysporum); all synthesize chitin-containing cell walls. High potency fungicides are active against these species in the 10 ppm range (10 μg/ml), while nikkomycin Z can be detected at ˜70 μg/ml in the calcofluor rescue assay if 30 μl volumes are tested in welled plates.

[8] = filter disk on YEPD agar, 24 hours, total applied: Nikkomycin Z 25 μg, Test Compound 1 45 μg, Test Compound 2 200 μg

For `Nc1nc(=O)[nH]cc1F` [5-F-cytocine, 5-fluoro-cytosine], which “growth in calcofluor culture” value (Aspergillus nidulans) is on record?
The value was “extensive growth”.

What about the “growth in calcofluor culture” value (Neurospora crassa) of the same compound?
The value was “extensive growth”.

What does the source list for `C[C@@H]([C@H](N)C(=O)N[C@H](C(=O)O)[C@H]1O[C@@H](n2ccc(=O)[nH]c2=O)[C@H](O)[C@@H]1O)[C@H](O)c1ccc(O)cn1` [nikkomycin Z]?
differential effect on Chs3-only versus Chs2-only strains ([1]; comparison of strain pairs): inhibits Chs3 to a significantly greater extent than Chs2; zone of inhibition, ECY36-3C [1, 8]: 21 mm; growth of strain ECY36-3C (in words) [1]: inhibited; growth of strain ECY36-3C (in words) ([1]; listed as Nikkomycin Z): inhibit the growth; zone of inhibition, ECY36-3D [2, 8]: 0 mm; growth of strain ECY36-3D (in words) [2]: unaffected; growth of strain ECY36-3D (in words) ([2]; listed as Nikkomycin Z): does not inhibit growth; % Chs3 Activity (Chs3; 1 μM inhibitor): ˜80%; % Chs3 Activity (Chs3; 2.5 μM inhibitor): ˜55%; % Chs3 Activity (Chs3; 5 μM inhibitor): ˜41%; chitin synthase isozyme affected (Chs3; secondary screening, Chs1, Chs2, Chs3 assays): act preferentially on the Chs3 isozyme; concentration at which detected in the calcofluor rescue assay ([3]; 30 μl volumes tested in welled plates): ~70 µg/mL; activity in the calcofluor rescue screen (turbid zone of growth) [3]: active; inhibition of Chs1 relative to Chs2 (Chs1): inhibit the activity of Chs1 to a much greater extent than Chs2; rescue from calcofluor (Botrytis cinerea): no rescue; rescue from calcofluor [4]: no rescue; growth in calcofluor culture (Aspergillus nidulans): extensive growth; growth in calcofluor culture (Neurospora crassa): extensive growth; growth of strain SSY640-10A (in words) [5]: inhibited; growth of strain SSY638-3B (in words) [6]: unaffected; growth inhibition of strain S288c (A.T.C.C. strain S288c): no inhibition; activity against phytopathogenic fungi ([7]; 25 μg/ml): weakly active

With `NC(=O)OC[C@H](O)[C@@H](O)[C@H](N)C(=O)N[C@H](C(=O)O)[C@H]1O[C@@H](n2cc(C(=O)O)c(=O)[nH]c2=O)[C@H](O)[C@@H]1O` [polyoxin D] as the compound, how does the “% Chs3 Activity” value (Chs3; 10 μM inhibitor) read?
The value was 100%.

What about the “% Chs3 Activity” value (Chs3; 30 μM inhibitor) of the same compound?
Its value is “˜40%”.

What about the “% Chs3 Activity” value (Chs3; 90 μM inhibitor) of the same compound?
The value was “˜16%”.

And the “activity in the calcofluor rescue screen (turbid zone of growth)” value [3]?
Its value is “inactive”.

And the rescue from calcofluor (Botrytis cinerea)?
The rescue from calcofluor was “no rescue”.

What about the rescue from calcofluor [4] of the same compound?
The rescue from calcofluor was “no rescue”.

What about the “growth in calcofluor culture” value (Aspergillus nidulans) of the same compound?
The value was “extensive growth”.

And the “growth in calcofluor culture” value (Neurospora crassa)?
The value was “extensive growth”.

What about the “activity against phytopathogenic fungi” value ([7]; 10 μg/ml concentration range, especially against Rhizoctonia) of the same compound?
Its value is “excellent activity”.

With `CCC(CC)Nc1c([N+](=O)[O-])cc(C)c(C)c1[N+](=O)[O-]` [prowl] as the compound, how does the “growth in calcofluor culture” value (Aspergillus nidulans) read?
The value was “extensive growth”.

And the “growth in calcofluor culture” value (Neurospora crassa)?
Its value is “extensive growth”.

For `COC(=O)c1ccccc1S(=O)(=O)NC(=O)Nc1nc(C)cc(C)n1` [sulfometuron methyl], which “growth in calcofluor culture” value (Aspergillus nidulans) is on record?
The value was “extensive growth”.

What about the “growth in calcofluor culture” value (Neurospora crassa) of the same compound?
Its value is “extensive growth”.
